Measured values as given in patent US20140135270A1, “MACROCYCLIC COMPOUNDS FOR INHIBITION OF INHIBITORS OF APOPTOSIS” (Ensemble Therapeutics Corp., priority 2012, published 2014).
Like-named read-outs stand apart in the source and are kept apart here.

Assays:
[1] = the molecule shown is the open-chain precursor, rcm bond, 38-membered ring, DCE, 70.0 °C
[2] = the molecule shown is the open-chain precursor, rcm bond

In the case of “(S)-2-((S)-2-((2S,4S)-4-(4-((4-((S)-2-((S)-2-((2S,4S)-4-Allyl-1-((S)-2-4S)-2-((tert-butoxycarbonyl)(methyl)amino)propanamido)-3,3-dimethylbutanoyl)pyrrolidine-2-carboxamido)-3-(naphthalen-2-yl)propanamido)-3-(methylsulfonamido)-3-oxopropyl)phenoxy)methyl)-1H-1,2,3-triazol-1-yl)-1-((S)-2-((S)-2-((tert-butoxycarbonyl)(methyl)amino)propanamido)-3,3-dimethylbutanoyl)pyrrolidine-2-carboxamido)-3-(naphthalen-2-yl)propanamido)-3-(4-(allyloxy)phenyl)propanoic acid”, the ring closure, yield after HPLC ([1]; Grubbs II (2 portions), 2.9 mM) was 49%.
Work on “(S)-Methyl 2-((S)-2-((2S,4S)-4-allyl-1-((S)-2-((S)-2-((tert-butoxycarbonyl)(methyl)amino)propanamido)-3,3-dimethylbutanoyl)pyrrolidine-2-carboxamido)-3-(naphthalen-2-yl)propanamido)-3-(4-(((E)-4-((3S,5S)-5-(((S)-1-(((S)-3-(4-(allyloxy)phenyl)-1-(cyclopropanesulfonamido)-1-oxopropan-2-yl)amino)-3-(naphthalen-2-yl)-1-oxopropan-2-yl)carbamoyl)-1-((S)-2-((S)-2-((tert-butoxycarbonyl)(methyl)amino)propanamido)-3,3-dimethylbutanoyl)pyrrolidin-3-yl)but-2-en-1-yl)oxy)phenyl)propanoate” yielded a ring closure, isolated yield ([2]; 38-membered ring, Grubbs I (2 portions), DCE, 1.1 mM, 55.0 °C) of 64%.
Work on “(S)-tert-Butyl 2-((S)-2-((2S,4S)-4-(4-((4-((S)-2-((S)-2-((2S,4S)-4-allyl-1-((S)-2-((S)-2-((tert-butoxycarbonyl)(methyl)amino)propanamido)-3,3-dimethylbutanoyl)pyrrolidine-2-carboxamido)-3-(naphthalen-2-yl)propanamido)-3-(cyclopropanesulfonamido)-3-oxopropyl)phenoxy)methyl)-1H-1,2,3-triazol-1-yl)-1-((S)-2-((S)-2-((tert-butoxycarbonyl)(methyl)amino)propanamido)-3,3-dimethylbutanoyl)pyrrolidine-2-carboxamido)-3-(naphthalen-2-yl)propanamido)-3-(4-(allyloxy)phenyl)propanoate” yielded a ring closure, yield after HPLC ([1]; Hoveyda-Grubbs II (10 mol%), 3.5 mM) of 75%.
Substance “(S)-tert-Butyl 2-((S)-2-((2S,4S)-4-allyl-1-((S)-2-((S)-2-((tert-butoxycarbonyl)(methyl)amino)propanamido)-3,3-dimethylbutanoyl)pyrrolidine-2-carboxamido)-3-(naphthalen-2-yl)propanamido)-3-(4-((1-((3R,5S)-5-(((S)-1-(((S)-2-(4-(allyloxy)phenyl)-1-(1-trityl-1H-tetrazol-5-yl)ethyl)amino)-3-(naphthalen-2-yl)-1-oxopropan-2-yl)carbamoyl)-1-((S)-2-((S)-2-((tert-butoxycarbonyl)(methyl)amino)propanamido)-3,3-dimethylbutanoyl)pyrrolidin-3-yl)-1H-1,2,3-triazol-4-yl)methoxy)phenyl)propanoate” has a ring closure, isolated yield ([2]; 38-membered ring, Hoveyda-Grubbs II (2 portions), DCE, 2.34 mM, 70.0 °C) of 48%.
In the case of “(S)-tert-Butyl 2-((S)-2-((2S,4S)-4-allyl-1-((S)-2-((S)-2-((tert-butoxycarbonyl)(methyl)amino)propanamido)-3,3-dimethylbutanoyl)pyrrolidine-2-carboxamido)-3-(naphthalen-2-yl)propanamido)-3-(4-((1-((3S,5S)-5-(((S)-1-(((S)-2-(4-(allyloxy)phenyl)-1-(5-oxo-4,5-dihydro-1,3,4-oxadiazol-2-yl)ethyl)amino)-3-(naphthalen-2-yl)-1-oxopropan-2-yl)carbamoyl)-1-((S)-2-((S)-2-((tert-butoxycarbonyl)(methyl)amino)propanamido)-3,3-dimethylbutanoyl)pyrrolidin-3-yl)-1H-1,2,3-triazol-4-yl)methoxy)phenyl)propanoate”, the ring closure, yield after HPLC ([1]; Hoveyda-Grubbs II (10 mol%), 5.2 mM) was 52%.
For “(S)-tert-butyl 2-((S)-2-((2S,4S)-4-((5-((4-((S)-2-((S)-2-((2S,4S)-4-allyl-1-((S)-2-((S)-2-((tert-butoxycarbonyl)(methyl)amino)propanamido)-3,3-dimethylbutanoyl)pyrrolidine-2-carboxamido)-3-(naphthalen-2-yl)propanamido)-3-(cyclopropanesulfonamido)-3-oxopropyl)phenoxy)methyl)-1H-1,2,3-triazol-1-yl)-1-((S)-2-((S)-2-((tert-butoxycarbonyl)(methyl)amino)propanamido)-3,3-dimethylbutanoyl)pyrrolidine-2-carboxamido)-3-(naphthalen-2-yl)propanamido)-3-(4-(allyloxy)phenyl)propanoate”, the ring closure, isolated yield ([2]; 37-membered ring, 2 steps) was 2%.
